Organism: Rattus norvegicus
Test: DrugMatrix - Regimen: Daily Repeat
Format: toxicity, organism-based, Sprague-Dawley
Parameters: regimen Daily Repeat, gender Male, age 6-8 weeks
Conditions: in vivo, po, route oral GAVAGE, vehicle .5 % CMC; for ABSOLUTE BASOPHIL / ABSOLUTE EOSINOPHIL / ABSOLUTE LYMPHOCYTE / ABSOLUTE MONOCYTE / ABSOLUTE SEGMENTED NEUTROPHIL / BASOPHIL / EOSINOPHIL / ERYTHROCYTE COUNT / HEMATOCRIT / HEMOGLOBIN / LEUKOCYTE COUNT / LYMPHOCYTE / MEAN CORPUSCULAR HEMOGLOBIN / MEAN CORPUSCULAR HEMOGLOBIN CONCENTRATION / MEAN CORPUSCULAR VOLUME / MONOCYTE / NEUTROPHIL / NUCLEATED RED BLOOD CELLS / PLATELET COUNT: tissue Blood; for ALANINE AMINOTRANSFERASE / ALBUMIN / ALKALINE PHOSPHATASE / ASPARTATE AMINOTRANSFERASE / BLOOD UREA NITROGEN / CARBON DIOXIDE / CHLORIDE / CHOLESTEROL / CREATINE PHOSPHOKINASE / CREATININE / GLUCOSE / LACTATE DEHYDROGENASE / LIPASE / PHOSPHORUS / POTASSIUM / SODIUM / TOTAL BILIRUBIN / TOTAL PROTEIN / URIC ACID: tissue Plasma
[1] = 0 mg/kg, 72 h, dose level Control, time 3 day
[2] = 0 mg/kg, 120 h, dose level Control, time 5 day
[3] = 100 mg/kg, 72 h, dose level Low, time 3 day

SMILES: O=C(O)CCc1nc(-c2ccccc2)c(-c2ccccc2)o1 [OXAPROZIN]
- ABSOLUTE BASOPHIL [1]: 0 CELLS/uL
- ABSOLUTE EOSINOPHIL [1]: 0 CELLS/uL
- ABSOLUTE LYMPHOCYTE [1]: 12269.67 CELLS/uL
- ABSOLUTE MONOCYTE [1]: 160.33 CELLS/uL
- ABSOLUTE SEGMENTED NEUTROPHIL [1]: 970 CELLS/uL
- BASOPHIL [1]: 0%
- EOSINOPHIL [1]: 0%
- ERYTHROCYTE COUNT [1]: 5.76 x10E6/uL
- HEMATOCRIT [1]: 36.57%
- HEMOGLOBIN [1]: 14.22 G/DL
- LEUKOCYTE COUNT [1]: 13.4 x10E3/uL
- LYMPHOCYTE [1]: 91.67%
- MEAN CORPUSCULAR HEMOGLOBIN [1]: 24.67 pg
- MEAN CORPUSCULAR HEMOGLOBIN CONCENTRATION [1]: 38.85 G/DL
- MEAN CORPUSCULAR VOLUME [1]: 63.52 fL
- MONOCYTE [1]: 1.17%
- NEUTROPHIL [1]: 7.17%
- NUCLEATED RED BLOOD CELLS [1]: 0.33 /100WBC
- PLATELET COUNT [1]: 1250.83 x10E3/uL
- ALANINE AMINOTRANSFERASE [1]: 49.17 u/L
- ALBUMIN [1]: 4.33 G/DL
- ALKALINE PHOSPHATASE [1]: 378.5 u/L
- ASPARTATE AMINOTRANSFERASE [1]: 82.17 u/L
- BLOOD UREA NITROGEN [1]: 15 mg/dL
- CARBON DIOXIDE [1]: 34.33 mmol/L
- CHLORIDE [1]: 99.17 MEQ/L
- CHOLESTEROL [1]: 71.17 mg/dL
- CREATINE PHOSPHOKINASE [1]: 258.67 u/L
- CREATININE [1]: 0.18 mg/dL
- GLUCOSE [1]: 142.67 mg/dL
- LACTATE DEHYDROGENASE [1]: 154.33 u/L
- LIPASE [1]: 9 u/L
- PHOSPHORUS [1]: 11.67 mg/dL
- POTASSIUM [1]: 7.13 MEQ/L
- SODIUM [1]: 142.22 MEQ/L
- TOTAL BILIRUBIN [1]: 0.18 mg/dL
- TOTAL PROTEIN [1]: 5.77 G/DL
- URIC ACID [1]: 1.55 mg/dL
- ABSOLUTE BASOPHIL [2]: 0 CELLS/uL
- ABSOLUTE EOSINOPHIL [2]: 23.33 CELLS/uL
- ABSOLUTE LYMPHOCYTE [2]: 14943.67 CELLS/uL
- ABSOLUTE MONOCYTE [2]: 32 CELLS/uL
- ABSOLUTE SEGMENTED NEUTROPHIL [2]: 1084.33 CELLS/uL
- BASOPHIL [2]: 0%
- EOSINOPHIL [2]: 0.17%
- ERYTHROCYTE COUNT [2]: 5.71 x10E6/uL
- HEMATOCRIT [2]: 35.28%
- HEMOGLOBIN [2]: 14.27 G/DL
- LEUKOCYTE COUNT [2]: 16.08 x10E3/uL
- LYMPHOCYTE [2]: 93%
- MEAN CORPUSCULAR HEMOGLOBIN [2]: 25.02 pg
- MEAN CORPUSCULAR HEMOGLOBIN CONCENTRATION [2]: 40.43 G/DL
- MEAN CORPUSCULAR VOLUME [2]: 61.82 fL
- MONOCYTE [2]: 0.17%
- NEUTROPHIL [2]: 6.67%
- NUCLEATED RED BLOOD CELLS [2]: 0.33 /100WBC
- PLATELET COUNT [2]: 1274 x10E3/uL
- ALANINE AMINOTRANSFERASE [2]: 54.17 u/L
- ALBUMIN [2]: 4.22 G/DL
- ALKALINE PHOSPHATASE [2]: 373.17 u/L
- ASPARTATE AMINOTRANSFERASE [2]: 81.83 u/L
- BLOOD UREA NITROGEN [2]: 16.67 mg/dL
- CARBON DIOXIDE [2]: 30.33 mmol/L
- CHLORIDE [2]: 99 MEQ/L
- CHOLESTEROL [2]: 71 mg/dL
- CREATINE PHOSPHOKINASE [2]: 273.5 u/L
- CREATININE [2]: 0.22 mg/dL
- GLUCOSE [2]: 141.83 mg/dL
- LACTATE DEHYDROGENASE [2]: 153.67 u/L
- LIPASE [2]: 10.33 u/L
- PHOSPHORUS [2]: 11.38 mg/dL
- POTASSIUM [2]: 7.08 MEQ/L
- SODIUM [2]: 142.75 MEQ/L
- TOTAL BILIRUBIN [2]: 0.18 mg/dL
- TOTAL PROTEIN [2]: 6.1 G/DL
- URIC ACID [2]: 1.67 mg/dL
- ABSOLUTE BASOPHIL [3]: 0 CELLS/uL
- ABSOLUTE EOSINOPHIL [3]: 43.67 CELLS/uL
- ABSOLUTE LYMPHOCYTE [3]: 14019 CELLS/uL
- ABSOLUTE MONOCYTE [3]: 367 CELLS/uL
- ABSOLUTE SEGMENTED NEUTROPHIL [3]: 1137 CELLS/uL
- BASOPHIL [3]: 0%
- EOSINOPHIL [3]: 0.33%
- ERYTHROCYTE COUNT [3]: 5.52 x10E6/uL
- HEMATOCRIT [3]: 36.5%
- HEMOGLOBIN [3]: 14.27 G/DL
- LEUKOCYTE COUNT [3]: 15.57 x10E3/uL
- LYMPHOCYTE [3]: 89.67%
- MEAN CORPUSCULAR HEMOGLOBIN [3]: 25.87 pg
- MEAN CORPUSCULAR HEMOGLOBIN CONCENTRATION [3]: 39.17 G/DL
- MEAN CORPUSCULAR VOLUME [3]: 66.13 fL
- MONOCYTE [3]: 2.33%
- NEUTROPHIL [3]: 7.67%
- NUCLEATED RED BLOOD CELLS [3]: 0.67 /100WBC
- PLATELET COUNT [3]: 1268.67 x10E3/uL
- ALANINE AMINOTRANSFERASE [3]: 66 u/L
- ALBUMIN [3]: 4.57 G/DL
- ALKALINE PHOSPHATASE [3]: 374.67 u/L
- ASPARTATE AMINOTRANSFERASE [3]: 95 u/L
- BLOOD UREA NITROGEN [3]: 16.67 mg/dL
- CARBON DIOXIDE [3]: 29.67 mmol/L
- CHLORIDE [3]: 99.67 MEQ/L
- CHOLESTEROL [3]: 67 mg/dL
- CREATINE PHOSPHOKINASE [3]: 308 u/L
- CREATININE [3]: 0.25 mg/dL
- GLUCOSE [3]: 141.33 mg/dL
- LACTATE DEHYDROGENASE [3]: 432 u/L
- LIPASE [3]: 8.67 u/L
- PHOSPHORUS [3]: 11.9 mg/dL
- POTASSIUM [3]: 6.67 MEQ/L
- SODIUM [3]: 145.33 MEQ/L
- TOTAL BILIRUBIN [3]: 0.33 mg/dL
- TOTAL PROTEIN [3]: 6.13 G/DL
- URIC ACID [3]: 2.03 mg/dL

— ChEMBL document CHEMBL3885881, “DrugMatrix”
